Drawing on ChEMBL document CHEMBL1133160, “Molecular modeling of the aldose reductase-inhibitor complex based on the X-ray crystal structure and studies with single-site-directed mutants” (J Med Chem, 2000), this text covers Ratio and IC50 for 7 molecules.

In general, IC50 refers to the concentration needed to halve the response being measured.

Experiment [1] in a line: Inhibitory Activity ratio (IC50 ratio) calculated by Human recombinant aldose reductase wild type against Mutant Aldose reductase (W111A).
The nature of experiment [2]: Inhibitory Activity ratio (IC50 ratio) calculated by Human recombinant aldose reductase wild type against Mutant Aldose reductase (W20Y).
Experiment [3] deals with Aldo-keto reductase family 1 member B1 (Homo sapiens, UniProt P15121). The experiment in a line: Inhibitory Activity against Human recombinant Aldose Reductase (wild type).
The nature of experiment [4]: Inhibitory Activity ratio (IC50 ratio) calculated by Human recombinant aldose reductase wild type against Mutant Aldose reductase (W20A).
Experiment [5] is described as follows: Inhibitory Activity ratio (IC50 ratio) calculated by Human recombinant aldose reductase wild type against Mutant Aldose reductase (W111Y).

`CN1C(=O)c2ccc(F)cc2C2(CC(=O)NC2=O)C1=O` (stereo not given): the Ratio in experiment [1] was 2730; in experiment [2], 3; in experiment [4] it was 1670; in experiment [5] it was 773. The IC50 in experiment [3] was determined as 73.2 nM.

For `O=C1NC(=O)C2(N1)c1cc(F)ccc1-c1ccc(F)cc12`, the Ratio was 781 in experiment [1], 48 in experiment [2], 9140 in experiment [4] and 1960 in experiment [5]. For the same molecule, the IC50 in experiment [3] came to 54.7 nM.

`O=C(O)Cn1c(=O)n(Cc2ccc(Br)cc2F)c(=O)c2ccc(Cl)cc21` [ZENARESTAT]: the Ratio in experiment [1] was 786; in experiment [2], 2.5; in experiment [4] it was 448; in experiment [5], 12. Also, in experiment [3], the IC50 came to 42.4 nM.

With `O=C(O)Cc1nn(Cc2ccc(Br)cc2F)c(=O)c2ccccc12` [PONALRESTAT], the Ratio was 1770 in experiment [1], 47 in experiment [2], 1770 in experiment [4] and 58 in experiment [5]. Also, the IC50 in experiment [3] was 66.5 nM.

As to `O=C(O)CC1C(=O)N(Cc2ccc(Br)cc2F)C(=O)c2ccc(F)cc21` (stereo not given), the Ratio was 120 in experiment [1], 21 in experiment [2], 311 in experiment [4] and 193 in experiment [5]. In addition, the IC50 in experiment [3] was determined as 227 nM.

Take `CN1C(=O)c2ccc(Cl)cc2C2(CC(=O)NC2=O)C1=O` (stereo not given): the Ratio was greater than 1280 in experiment [1], 1.5 in experiment [2], 1070 in experiment [4] and 324 in experiment [5]. Besides, the half-inhibitory concentration (IC50) in experiment [3] worked out at 78.2 nM.

On to `O=C1CC2(C(=O)N1)C(=O)N(Cc1nc3cc(C(F)(F)F)ccc3s1)C(=O)c1ccc(F)cc12` (stereo not given), for which the Ratio in experiment [1] was 19; in experiment [2] it was 0.1; in experiment [4] it was 1; in experiment [5], 2. The IC50 in experiment [3] was found to be 144 nM.
